Consider 25 molecules from patent US8629112B2, “Template-fixed peptidomimetics with CXCR7 modulating activity” (priority 2010, dated 2014).

Square brackets hold non-standard residues; d marks the D form. Peptide text beside a SMILES is read from it. * marks the point of attachment. 1Nal = N[C@@H](Cc1cccc2ccccc12)C(=O)O; 2Nal = N[C@@H](Cc1ccc2ccccc2c1)C(=O)O; d1Nal = N[C@H](Cc1cccc2ccccc12)C(=O)O; Tiq1c(1S) = O=C(O)[C@H]1NCCc2ccccc21; cisHyp = O=C(O)[C@@H]1C[C@H](O)CN1; Tic = O=C(O)[C@@H]1Cc2ccccc2CN1; dTic = O=C(O)[C@H]1Cc2ccccc2CN1; dOrn = NCCC[C@@H](N)C(=O)O; dPip = O=C(O)[C@H]1CCCCN1; Orn = NCCC[C@H](N)C(=O)O; Aze = O=C(O)[C@@H]1CCN1; Dab = NCC[C@H](N)C(=O)O; Bn = c1ccc(C*)cc1

As usually defined, the EC50 is the concentration at which the effect is half-maximal.

T1 sequence (P25106 whole entry): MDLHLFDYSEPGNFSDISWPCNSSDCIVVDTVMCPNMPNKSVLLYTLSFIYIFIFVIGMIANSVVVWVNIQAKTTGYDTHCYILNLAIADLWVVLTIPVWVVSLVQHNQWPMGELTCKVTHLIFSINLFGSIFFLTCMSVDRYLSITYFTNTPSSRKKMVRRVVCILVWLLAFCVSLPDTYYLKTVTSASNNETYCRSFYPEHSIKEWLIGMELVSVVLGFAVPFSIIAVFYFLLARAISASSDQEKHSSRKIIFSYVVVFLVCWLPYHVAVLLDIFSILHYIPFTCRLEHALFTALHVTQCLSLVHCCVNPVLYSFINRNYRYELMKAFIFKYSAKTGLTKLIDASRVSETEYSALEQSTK

The first experiment addresses T1, CXCR7 (Homo sapiens, UniProt P25106).
T1 construct: host or cells: CHO (PathHunter CHO-CXCR7 β-arrestin cells)
The experiment in a line: CXCR7 β-arrestin recruitment assay (PathHunter CHO-CXCR7, agonistic assay). Format: cell-based.
Settings: not given
The protocol:
Lyophilized peptides were weighed on a Microbalance (Mettler MX5) and dissolved in DMSO to a final concentration of 10 mM unless otherwise stated. Stock solutions were kept at +4° C., and protected from light.
2.2 CXCR7 β-Arrestin Recruitment Assay
The PathHunter CHO-CXCR7 (DiscoverX) assay was performed according to the manufacturer's protocol. In brief, CHO CXCR7 β-arrestin cells were seeded at a density of 5000 cells per well in 40 μl of F12 medium in a 96-half volume well black culture plate and incubated overnight at 37° C. in a humidified atmosphere with 5% CO2. The next day, serial dilutions of PEM compounds have been prepared in DMSO and subsequently diluted in HBSS buffer containing 0.1% BSA.
For agonistic assay, 10 μl of compound solution or a solution of stromal cell-derived factor-1 (SDF-1) as positive control was added to the cells with a final DMSO concentration of 1% (v/v). The plate was incubated for 90 min at 37° C. in 5% CO2 incubator with gentle shaking (300 rpm) before addition of 40 ul of detection reagent per well. Reaction was developed 90 min at room temperature in the dark with shaking, and chemiluminescence was measured with a Topcount (Perkin Elmer) luminescence counter.
Molecule `N=C(N)NCCC[C@@H]1NC(=O)[C@H](Cc2c[nH]c3ccccc23)NC(=O)[C@@H](Cc2ccccc2)NC(=O)[C@H](Cc2ccc(O)cc2)NC(=O)[C@@H]2Cc3ccccc3CN2C(=O)[C@H]2CCCN2C1=O` [compound 5, cyclo(-Tyr-^DPhe-Trp-Arg-^DPro-Tic-)] (cyclo(R[dP][Tic]Y[dF]W)) showed an EC50 of 0.0115 ± 0.009 µM.

Still in this experiment, the particulars now being: CHO CXCR7 β-arrestin cells, agonistic assay, 90 min at 37° C., chemiluminescence; read-out: β-Arrestin EC50.
As for `N=C(N)NCCC[C@@H]1NC(=O)[C@H](Cc2c[nH]c3ccccc23)NC(=O)[C@@H](CCCNC(=N)N)NC(=O)[C@H](Cc2c[nH]c3ccccc23)NC(=O)[C@@H]2CCN2C(=O)[C@H]2CCCN2C1=O` [compound 51, cyclo(-Trp-^DArg-Trp-Arg-^DPro-Azt-)] (cyclo([Aze]W[dR]WR[dP])), the EC50 is 0.17 ± 0.0225 µM. Take `N=C(N)NCCC[C@@H]1NC(=O)[C@H](Cc2c[nH]c3ccccc23)NC(=O)[C@@H](CCCNC(=N)N)NC(=O)[C@H](Cc2c[nH]c3ccccc23)NC(=O)[C@@H]2Cc3ccccc3CN2C(=O)[C@H]2CCCN2C1=O` [compound 13, cyclo(-Trp-^DArg-Trp-Arg-^DPro-Tic-)] (cyclo(R[dP][Tic]W[dR]W)): the EC50 came to 0.128 ± 0.0325 µM. As for `N=C(N)NCCC[C@@H]1NC(=O)[C@H](Cc2c[nH]c3ccccc23)NC(=O)[C@@H](Cc2c[nH]cn2)NC(=O)[C@H](Cc2c[nH]c3ccccc23)NC(=O)[C@@H]2CCN2C(=O)[C@H]2CCCN2C1=O` [compound 48, cyclo(-Trp-^DHis-Trp-Arg-^DPro-Azt-)] (cyclo([Aze]W[dH]WR[dP])), the 50% effective concentration (EC50) came out at 0.342 ± 0.0468 µM.

For the molecule `CC[C@H](C)[C@@H]1NC(=O)[C@@H](Cc2c[nH]cn2)NC(=O)[C@H](Cc2cccc3ccccc23)NC(=O)[C@@H]2CCN2C(=O)[C@H]2CCCN2C(=O)[C@H](CCCNC(=N)N)NC1=O` [Ex. 42, cyclo(-1Nal-^DHis-Ile-Arg-^DPro-Azt-)] (cyclo([1Nal][dH]IR[dP][Aze])), the EC50 came to 0.0857 ± 0.0766 µM. Regarding `CC[C@H](C)[C@@H]1NC(=O)[C@@H]2Cc3ccccc3CN2C(=O)[C@H]2CCCN2C(=O)[C@H](CCCNC(=N)N)NC(=O)[C@H](Cc2c[nH]cn2)NC(=O)[C@@H](Cc2c[nH]c3ccccc23)NC1=O` [compound 34, cyclo(-Ile-^DTrp-His-Arg-^DPro-Tic-)] (cyclo(HR[dP][Tic]I[dW])), the EC50 is 0.317 ± 0.36 µM.

Turning to `N=C(N)NCCC[C@@H]1NC(=O)[C@H](Cc2c[nH]c3ccccc23)NC(=O)[C@@H](Cc2ccccc2)NC(=O)[C@H](Cc2c[nH]c3ccccc23)NC(=O)[C@@H]2CCCN2C(=O)[C@H]2CCCCN2C1=O` [compound 41, cyclo(-Trp-^DPhe-Trp-Arg-^DPip-Pro-)] (cyclo(PW[dF]WR[dPip])), the EC50 amounted to 0.0787 ± 0.0009 µM. On to `N=C(N)NCCC[C@@H]1NC(=O)[C@H](Cc2c[nH]cn2)NC(=O)[C@@H](CCCNC(=N)N)NC(=O)[C@H](Cc2c[nH]c3ccccc23)NC(=O)[C@@H]2Cc3ccccc3CN2C(=O)[C@H]2CCCN2C1=O` [compound 37, cyclo(-Trp-^DArg-His-Arg-^DPro-Tic-)] (cyclo(HR[dP][Tic]W[dR])), for which the 50% effective concentration (EC50) was found to be 0.348 ± 0.0556 µM.

Take `NCC[C@@H]1NC(=O)[C@H](Cc2c[nH]c3ccccc23)NC(=O)[C@@H](Cc2ccccc2)NC(=O)[C@H](Cc2c[nH]c3ccccc23)NC(=O)[C@@H]2Cc3ccccc3CN2C(=O)[C@H]2CCCN2C1=O` [compound 22, cyclo(-Trp-^DPhe-Trp-Dab-^DPro-Tic-)] (cyclo([Dab][dP][Tic]W[dF]W)): the EC50 is 0.0126 ± 0.0016 µM. On to `N=C(N)NCCC[C@@H]1NC(=O)[C@H](Cc2c[nH]c3ccccc23)NC(=O)[C@@H](CCCN)NC(=O)[C@H](Cc2c[nH]c3ccccc23)NC(=O)[C@@H]2Cc3ccccc3CN2C(=O)[C@H]2CCCN2C1=O` [compound 14, cyclo(-Trp-^DOrn-Trp-Arg-^DPro-Tic-)] (cyclo(R[dP][Tic]W[dOrn]W)), for which the EC50 amounted to 0.111 ± 0.0754 µM. As to `N=C(N)NCCC[C@@H]1NC(=O)[C@H](Cc2ccc(O)cc2)NC(=O)[C@@H](Cc2c[nH]cn2)NC(=O)[C@H](Cc2cccc3ccccc23)NC(=O)[C@@H]2CCN2C(=O)[C@H]2CCCN2C1=O` [compound 45, cyclo(-1Nal-^DHis-Tyr-Arg-^DPro-Azt-)] (cyclo([1Nal][dH]YR[dP][Aze])), the EC50 was determined as 0.0444 ± 0.0254 µM. In the case of `NCCC[C@@H]1NC(=O)[C@H](Cc2c[nH]c3ccccc23)NC(=O)[C@@H](Cc2ccccc2)NC(=O)[C@H](Cc2c[nH]c3ccccc23)NC(=O)[C@@H]2Cc3ccccc3CN2C(=O)[C@H]2CCCN2C1=O` [compound 21, cyclo(-Trp-^DPhe-Trp-Orn-^DPro-Tic-)] (cyclo([Orn][dP][Tic]W[dF]W)), the EC50 was 0.0121 µM. The same measure, in the same setting: as for `N=C(N)NCCC[C@@H]1NC(=O)[C@H](Cc2c[nH]c3ccccc23)NC(=O)[C@@H](CCCNC(=N)N)NC(=O)[C@H](Cc2cccc3ccccc23)NC(=O)[C@@H]2Cc3ccccc3CN2C(=O)[C@H]2CCCN2C1=O` [compound 28, cyclo(-1Nal-^DArg-Trp-Arg-^DPro-Tic-)] (cyclo([1Nal][dR]WR[dP][Tic])), the figure is 0.28 ± 0.115 µM; as for `N=C(N)NCCC[C@@H]1NC(=O)[C@H](Cc2c[nH]c3ccccc23)NC(=O)[C@@H](CCCNC(=N)N)NC(=O)[C@H](Cc2cccc3ccccc23)NC(=O)[C@@H]2CCN2C(=O)[C@H]2CCCN2C1=O` [compound 44, cyclo(-1Nal-^DArg-Trp-Arg-^DPro-Azt-)] (cyclo([1Nal][dR]WR[dP][Aze])), 0.146 ± 0.0818 µM; as for `N=C(N)NCCC[C@@H]1NC(=O)[C@H](Cc2c[nH]c3ccccc23)NC(=O)[C@@H](Cc2ccccc2)NC(=O)[C@H](Cc2c[nH]c3ccccc23)NC(=O)[C@@H]2CCCN2C(=O)[C@H]2Cc3ccccc3CN2C1=O` [Ex. 40, cyclo(-Trp-^DPhe-Trp-Arg-^DTic-Pro-)] (cyclo(PW[dF]WR[dTic])), 0.0836 ± 0.0227 µM. Regarding `N=C(N)NCCC[C@@H]1NC(=O)[C@@H](Cc2ccccc2)NC(=O)[C@H](Cc2c[nH]c3ccccc23)NC(=O)[C@@H]2Cc3ccccc3CN2C(=O)[C@H]2CCCN2C(=O)[C@H](CCCNC(=N)N)NC1=O` [compound 19, cyclo(-Trp-^DPhe-Arg-Arg-^DPro-Tic-)] (cyclo(RR[dP][Tic]W[dF])), the EC50 came out at 0.178 ± 0.102 µM.

Take `N=C(N)NCCC[C@@H]1NC(=O)[C@@H]2Cc3ccccc3CN2C(=O)[C@H]2CCCN2C(=O)[C@H](CCCNC(=N)N)NC(=O)[C@H](Cc2c[nH]c3ccccc23)NC(=O)[C@@H](Cc2ccccc2)NC1=O` [compound 6, cyclo(-Arg-^DPhe-Trp-Arg-^DPro-Tic-)] (cyclo(R[dF]WR[dP][Tic])): the EC50 was determined as 0.0128 ± 0.0045 µM.

Turning to `N=C(N)NCCC[C@@H]1NC(=O)[C@H](Cc2c[nH]cn2)NC(=O)[C@@H](Cc2c[nH]c3ccccc23)NC(=O)[C@H](Cc2c[nH]cn2)NC(=O)[C@@H]2Cc3ccccc3CN2C(=O)[C@H]2CCCN2C1=O` [compound 31, cyclo(-His-^DTrp-His-Arg-^DPro-Tic-)] (cyclo(HR[dP][Tic]H[dW])), the EC50 is 0.226 ± 0.0132 µM. For `N=C(N)NCCC[C@@H]1NC(=O)[C@@H]2Cc3ccccc3CN2C(=O)[C@H]2CCCN2C(=O)[C@H](CCCNC(=N)N)NC(=O)[C@H](Cc2c[nH]cn2)NC(=O)[C@@H](Cc2c[nH]c3ccccc23)NC1=O` [compound 35, cyclo(-Arg-^DTrp-His-Arg-^DPro-Tic-)] (cyclo(HR[dP][Tic]R[dW])), the EC50 is 0.234 ± 0.132 µM. Take `O=C1N[C@@H](Cc2c[nH]cn2)C(=O)N2CCC[C@@H]2C(=O)N2Cc3ccccc3C[C@H]2C(=O)N[C@@H](Cc2c[nH]c3ccccc23)C(=O)N[C@H](Cc2ccccc2)C(=O)N[C@H]1Cc1c[nH]c2ccccc12` [Ex. 23, cyclo(-Trp-^DPhe-Trp-His-^DPro-Tic-)] (cyclo(H[dP][Tic]W[dF]W)): the EC50 came out at 0.0183 ± 0.0176 µM. The same measure, in the same setting: for `N=C(N)NCCC[C@@H]1NC(=O)[C@H](Cc2c[nH]c3ccccc23)NC(=O)[C@@H](Cc2c[nH]cn2)NC(=O)[C@H](Cc2c[nH]c3ccccc23)NC(=O)[C@@H]2Cc3ccccc3CN2C(=O)[C@H]2CCCN2C1=O` [compound 11, cyclo(-Trp-^DHis-Trp-Arg-^DPro-Tic-)] (cyclo(R[dP][Tic]W[dH]W)) the value was 0.204 ± 0.0081 µM; for `N=C(N)NCCC[C@@H]1NC(=O)[C@H](Cc2c[nH]c3ccccc23)NC(=O)[C@@H](Cc2ccccc2)NC(=O)[C@H](Cc2ccc3ccccc3c2)NC(=O)[C@@H]2Cc3ccccc3CN2C(=O)[C@H]2CCCN2C1=O` [compound 8, cyclo(-2Nal-^DPhe-Trp-Arg-^DPro-Tic-)] (cyclo([2Nal][dF]WR[dP][Tic])), 0.0089 ± 0.0058 µM. Same read-out and setting: for `O=C1N[C@@H](Cc2c[nH]c3ccccc23)C(=O)N2CCC[C@@H]2C(=O)N2Cc3ccccc3C[C@H]2C(=O)N[C@@H](Cc2c[nH]cn2)C(=O)N[C@H](Cc2cccc3ccccc23)C(=O)N[C@H]1Cc1c[nH]cn1` [compound 39, cyclo(-His-^D1Nal-His-Trp-^DPro-Tic-)] (cyclo(HW[dP][Tic]H[d1Nal])) the value was 0.269 ± 0.0801 µM; for `N=C(N)NCCC[C@@H]1NC(=O)[C@H](Cc2c[nH]c3ccccc23)NC(=O)[C@@H](Cc2ccccc2)NC(=O)[C@H](Cc2c[nH]c3ccccc23)NC(=O)[C@@H]2C[C@H](OCc3ccccc3)CN2C(=O)[C@H]2CCCN2C1=O` [Ex. 27, cyclo(-Trp-^DPhe-Trp-Arg-^DPro-(4S)-Hyp(Bn)-)] (cyclo(R[dP][cisHyp](Bn)W[dF]W)), 0.0017 ± 0.0011 µM. In the case of `N=C(N)NCCC[C@@H]1NC(=O)[C@H](Cc2c[nH]c3ccccc23)NC(=O)[C@@H](Cc2ccccc2)NC(=O)[C@H](Cc2c[nH]c3ccccc23)NC(=O)[C@@H]2c3ccccc3CCN2C(=O)[C@H]2CCCN2C1=O` [Ex. 25, cyclo(-Trp-^DPhe-Trp-Arg-^DPro-Tiq-)] (cyclo(R[dP][Tiq1c(1S)]W[dF]W)), the EC50 came to 0.0004 µM.
